Molecular target: GAR formyltransferase (Lactobacillus casei)
Assay: Inhibition of the GAR formyl transferase in lactobacillus casei

Structure (SMILES): CC(Cc1ccc(C(=O)NC(CCC(=O)O)C(=O)O)cc1)Cc1cnc2nc(N)[nH]c(=O)c2n1 (stereo unspecified)
- IC50: > 20 µM

From BindingDB's records for doi:10.1021/jm00126a022 (University of South Alabama, 1989)
